Measured values reported in the supplement of paper PMC10307832.

Columns and labels:
Experiment in all cases: relative viability (nuclei count vs DMSO), 5 days (fraction); higher = more cells survive
[1] = compound: C1=CC=C(C(=C1)C2=CC=C(C=C2)C3=CSC4=C3C(=C(C(=O)N4)C#N)O)O + O=C(c1cc(Cc2n[nH]c(=O)c3ccccc23)ccc1F)N1CCN(C(=O)C2CC2)CC1 [Olaparib] (partner 8 µM)
Method in brief: (§1)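 A single step with final 0.05% Triton X-100, 1% formaldehyde and 1 ug/ml Hoechst fixed the cells and stained nuclei 5 days after treatment. Lung cancer cell lines in 1536-well plates had been treated by pin tool the day after seeding with one drug alone or a fixed anchor-drug dose plus five library-drug doses (not always all listed) in √10 steps, and nuclei were counted on 4× images. Relative viability is the ratio of nuclei in treated wells to nuclei in vehicle wells, taken as the median of duplicate plates.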

TGX 221 + Palbociclib = compound: CC1=CN2C(=O)C=C(N=C2C(=C1)C(C)NC3=CC=CC=C3)N4CCOCC4 [TGX 221] + CC(=O)c1c(C)c2cnc(Nc3ccc(N4CCNCC4)cn3)nc2n(C2CCCC2)c1=O [Palbociclib] (partner 0.5 µM)
Method in brief: as §1

TGX 221 + Foretinib = compound: CC1=CN2C(=O)C=C(N=C2C(=C1)C(C)NC3=CC=CC=C3)N4CCOCC4 [TGX 221] + COc1cc2c(Oc3ccc(NC(=O)C4(C(=O)Nc5ccc(F)cc5)CC4)cc3F)ccnc2cc1OCCCN1CCOCC1 [Foretinib] (partner 0.25 µM)
Method in brief: as §1

[2] = compound: O=C(CCCCCCNC(=O)c1cnc(N(c2ccccc2)c2ccccc2)nc1)NO [Ricolinostat] + Nc1ncn([C@H]2C[C@H](O)[C@@H](CO)O2)c(=O)n1 [Decitabine] (partner 2 µM)
Method in brief: as §1

Cell Line | relative viability ([1]; first compound 0.08 µM) | relative viability ([1]; first compound 0.253 µM) | relative viability ([1]; first compound 0.8 µM) | relative viability ([1]; first compound 2.53 µM) | relative viability ([1]; first compound 8 µM) | relative viability (TGX 221 + Palbociclib; first compound 0.08 µM) | relative viability (TGX 221 + Palbociclib; first compound 0.253 µM) | relative viability (TGX 221 + Palbociclib; first compound 0.8 µM) | relative viability (TGX 221 + Palbociclib; first compound 2.53 µM) | relative viability (TGX 221 + Palbociclib; first compound 8 µM) | relative viability (TGX 221 + Foretinib; first compound 0.08 µM) | relative viability (TGX 221 + Foretinib; first compound 0.253 µM) | relative viability (TGX 221 + Foretinib; first compound 0.8 µM) | relative viability (TGX 221 + Foretinib; first compound 2.53 µM) | relative viability (TGX 221 + Foretinib; first compound 8 µM) | relative viability ([2]; first compound 0.08 µM) | relative viability ([2]; first compound 0.253 µM) | relative viability ([2]; first compound 0.8 µM) | relative viability ([2]; first compound 2.53 µM)
BEN | 0.987 | 1.38 | 1.03 | 1.19 | 0.971 | 0.483 | 0.413 | 0.439 | 0.487 | 0.503 | 0.667 | 0.58 | 0.748 | 0.624 | 0.606 | 0.578 | 0.78 | 0.567 | 0.581
NCI-H358 | 0.4 | 0.654 | 0.531 | 0.562 | 0.587 | 0.116 | 0.118 | 0.149 | 0.116 | 0.125 | 0.702 | 0.664 | 0.711 | 0.597 | 0.587 | 0.247 | 0.212 | 0.214 | 0.179
NCI-H1944 | 0.465 | 0.433 | 0.386 | 0.464 | 0.373 | – | 0.327 | 0.332 | 0.277 | 0.245 | 0.844 | 0.819 | 0.873 | 0.746 | 0.612 | 0.409 | 0.37 | 0.382 | 0.385
201T | 0.652 | 0.812 | 0.828 | 0.74 | 0.885 | 0.356 | 0.348 | 0.331 | 0.337 | 0.32 | 1.22 | 1.09 | 1.13 | 0.931 | 0.817 | 0.843 | 0.847 | 0.873 | 0.887
NCI-H647 | – | 0.648 | 0.677 | 0.776 | 0.421 | 0.296 | 0.297 | 0.283 | 0.232 | 0.275 | 1.05 | 1.04 | 1.21 | 0.762 | 0.931 | 0.365 | 0.317 | 0.31 | 0.312
NCI-H441 | 0.548 | 0.539 | 0.64 | 0.716 | 0.462 | 0.239 | 0.203 | 0.217 | 0.185 | 0.21 | 1.11 | 0.849 | 0.919 | 0.897 | 0.96 | 0.28 | 0.227 | 0.202 | 0.214
PC-3 [JPC-3] | 1.11 | 1.37 | 1.15 | 1.23 | 1.24 | 0.522 | 0.516 | 0.541 | 0.499 | 0.566 | 1 | 1.03 | 1.05 | 0.947 | 0.972 | 0.766 | 0.736 | 0.757 | 0.758
NCI-H2126 | 0.888 | 0.976 | 0.95 | 0.955 | 0.786 | 0.348 | 0.341 | 0.342 | 0.354 | 0.308 | 1.19 | 1.11 | 1 | 1.05 | 1.05 | 0.563 | 0.555 | 0.561 | 0.481
HCC-15 | 0.797 | 0.789 | 0.705 | 0.728 | 0.802 | 0.497 | 0.663 | 0.718 | 0.635 | 0.724 | 0.993 | 0.964 | 1 | 0.973 | 1 | 0.593 | 0.687 | 0.631 | 0.464
NCI-H2085 | 0.754 | 0.847 | 0.771 | 0.796 | 0.702 | 0.506 | 0.481 | 0.43 | 0.35 | 0.291 | 1.06 | 0.845 | 0.96 | 0.428 | 0.401 | – | 0.51 | 0.557 | 0.512
LOU-NH91 | 0.877 | 1.01 | 0.872 | 0.959 | 0.877 | 0.612 | 0.511 | 0.448 | 0.492 | 0.517 | 0.766 | 0.922 | 0.945 | 0.907 | 0.781 | – | 0.794 | 0.826 | 0.887
NCI-H3122 | 0.715 | 0.675 | 0.573 | 0.645 | 0.45 | 0.168 | 0.154 | 0.208 | 0.169 | 0.184 | 0.967 | 0.931 | 0.957 | 0.949 | 1.01 | 0.388 | 0.404 | 0.443 | 0.529
HOP-62 | 0.592 | 0.471 | 0.515 | 0.844 | 0.233 | 0.429 | 0.449 | 0.484 | 0.509 | 0.43 | 1.09 | 1.1 | 1.05 | 1.15 | 1.08 | 0.217 | 0.186 | 0.144 | 0.221
LCLC-103H | 0.605 | 0.684 | 0.789 | 0.832 | 0.718 | 0.472 | 0.471 | 0.469 | 0.424 | 0.495 | 0.698 | 0.761 | 0.883 | 0.724 | 0.619 | 0.726 | 0.745 | 0.76 | 0.739
LU99A | 0.255 | 0.225 | 0.248 | 0.262 | 0.266 | 0.383 | 0.344 | 0.373 | 0.405 | 0.366 | 0.68 | 0.902 | 0.755 | 0.917 | 0.953 | 0.883 | 0.899 | 0.722 | 0.748
